Reference: patent US10130624B2, “Pharmaceutical compositions of amlodipine and benazepril” (LUPIN LIMITED, priority 2005, dated 2018)

Experiment: Preformulation compatibility study: amlodipine and benazepril blends, with or without excipients, at accelerated stability conditions; colour change and degradation products by HPLC
Type: physicochemical
Conditions: without any excipients
Method: The studies were carried out by blending amlodipine & benazepril and then mixing with excipients in amounts intended to be used in the proposed compositions. For example, amlodipine:benazepril:diluent were blended in the ratio 0.7:1:10, amlodipine:benazepril:disintegrant were blended in the ratio 0.7:1:2, amlodipine:benazepril:binder were blended in the ratio 0.7:1:2, and amlodipine:benazepril:lubricant were blended in the ratio 0.7:1:0.5.

Related substances: Amlodipine impurity D (Initial): 0.000%
Related substances: Benazepril impurity C (Initial): 0.130%
Related substances: Benazepril impurity G (Initial): 0.060%
Related substances: Total impurities (Initial): 0.260%
Related substances: Amlodipine impurity D (charged on stability, 3M): 0.000%
Related substances: Benazepril impurity C (charged on stability, 3M): 0.143%
Related substances: Benazepril impurity G (charged on stability, 3M): 0.000%
Related substances: Total impurities (charged on stability, 3M): 0.267%
SMILES: CCOC(=O)[C@H](CCc1ccccc1)N[C@H]1CCc2ccccc2N(CC(=O)O)C1=O [Benazepril alone, Benazepril]
